Test results taken from patent US6881409B2, “Compositions and methods for promoting nerve regeneration” (Oregon Health and Science University, priority 1997, dated 2005).

Test system: SH-SY5Y human neuroblastoma cells
Assay: Neurite outgrowth (neuritic process length) of NGF-differentiated SH-SY5Y cells
Format: cell-based
Protocol: Cell cultures. SH-SY5Y human neuroblastoma cells were maintained in DMEM medium (GIBCO) supplemented with 10% fetal calf serum (SIGMA), 50 IU/mL penicillin, and […] streptomycin (GIBCO) at 37° C. in 7% CO^2. Cells were plated in six-well plates at 1×10^6 cells/well and treated with […] aphidicolin (SIGMA). At five days, cells were washed, treated with nerve growth factor (NGF) (Boehringer Mannheim, Indianapolis, Ind.) at 10 ng/mL (to induce process outgrowth) in the presence or absence of FK506 (1 and 10 nM) (Calbiochem-Novabiochem Int'l., La Jolla, Calif.) and/or geldanamycin (0.1, 1, and 10 nM) (Calbiochem-Novabiochem, La Jolla, Calif.). Media was changed at 96 hours and replaced with fresh media with the compounds (NGF plus FK506 and/or geldanamycin) for an additional 72 hours (total time, 168 hours). The top 50% of axonal lengths were selected for statistical analysis. All experiments were run in duplicate wells and repeated at least twice for reproducibility.
Light morphometry of neurite lengths. For analysis of process length, cells 20 fields per well) were randomly photographed at 72 and 168 hours. Neurite lengths were measured on photographic prints using a Houston Instrument HI-PAD digitizing tablet connected to an IBM XT computer with appropriate software (Bioquant IV, R&M Biometrics, Nashville, Tenn.); only those processes greater than two times the cell body length were measured. Data from identically treated wells were not different and were therefore combined. […] Histograms were compared using a Mann-Whitney U test, which makes no assumptions about the shape of the distribution.
Preparation of FK506 and geldanamycin. FK506 (mol. wt. 822) and geldanamycin (mol. wt. 561) were dissolved in DMEM medium.
In a first set of experiments, SH-SY5Y neuroblastoma cells were plated in 6-well plates with DMEM plus 15% FCS and differentiated with NGF (10 ng/ml). The effects of various concentrations of geldanamycin and FK506 on neurite growth, alone and in combination, were tested.

Molecule: C=CC[C@@H]1/C=C(\C)C[C@H](C)C[C@H](OC)[C@H]2O[C@@](O)(C(=O)C(=O)N3CCCC[C@H]3C(=O)O[C@H](/C(C)=C/[C@@H]3CC[C@@H](O)[C@H](OC)C3)[C@H](C)[C@@H](O)CC1=O)[C@H](C)C[C@@H]2OC [FK506]
- Mean Length of Top 50% of Neuritic Processes (Table 1, FK506 10 nM + NGF 10 ng/mL, 168 hours): 77.8 µm
- Mean Length of Top 50% of Neuritic Processes (Table 2, FK506 1 nM + NGF 10 ng/mL, 168 hours): 89.9 µm
- Mean Length of Top 50% of Neuritic Processes (Table 2, FK506 10 nM + NGF 10 ng/mL, 168 hours): 82.7 µm

Molecule: COC1=C2C[C@@H](C)C[C@H](OC)[C@H](O)[C@@H](C)/C=C(\C)[C@H](OC(N)=O)[C@@H](OC)/C=C\C=C(/C)C(=O)NC(=CC1=O)C2=O [Geldanamycin, geldanamycin]
- Mean Length of Top 50% of Neuritic Processes (Table 1, geldanamycin 1 nM + NGF 10 ng/mL, 168 hours): 64 µm
- Mean Length of Top 50% of Neuritic Processes (Table 1, geldanamycin 10 nM + NGF 10 ng/mL, 168 hours): 54.8 µm
- Mean Length of Top 50% of Neuritic Processes (Table 2, geldanamycin 0.1 nM + NGF 10 ng/mL, 168 hours): 98.1 µm
- effect on length of the processes (first set, geldanamycin 10 nM in the presence of NGF): no effect

Molecule: estrogen
- effect on neurite outgrowth with FK506 (10 nM with FK506 10 nM): additive effect
- neurite outgrowth (10 nM, without NGF): increased neurite outgrowth

B1: NGF: nerve growth factor (Boehringer Mannheim), used to induce process outgrowth (protein, UniProt P01139 122-241, looked up)
Beta-nerve growth factor: SSTHPVFHMGEFSVCDSVSVWVGDKTTATDIKGKEVTVLAEVNINNSVFRQYFFETKCRASNPVESGCRGIDSKHWNSYCTTTHTFVKALTTDEKQAAWRFIRIDTACVCVLSRKATRRG
- Mean Length of Top 50% of Neuritic Processes (Table 1 (first set), NGF 10 ng/mL only, 168 hours after treatment): 54 µm
- Mean Length of Top 50% of Neuritic Processes (Table 2 (second set), NGF 10 ng/mL only, 168 hours): 70.4 µm
- mean length of the processes compared to untreated cells (first set, NGF 10 ng/mL, 168 hours): more than doubled
- mean neuritic lengths compared to untreated control cells (second set, NGF-treated cells): more than double
